Results: ChEMBL document CHEMBL4270577, “Synthesis, anticancer activity and molecular modeling studies of 1,2,4-triazole derivatives as EGFR inhibitors” (Eur J Med Chem, 2018)

tested on: SK-MEL-5; test: Growth inhibition of human SK-MEL-5 cells at 10 uM incubated for 48 hrs by sulforhodamine B assay relative to control; type: functional; conditions: SK-MEL-5, 48 h, read-out: GI

Compound | inhibition of growth at 10 µM [%]
COc1ccc(-c2nc3sc(-c4ccc(Cl)cc4)cn3n2)cc1 | 27.4
c1ccc(-c2nc3sc(-c4ccccc4)cn3n2)cc1 | 20

tested on: OVCAR-4; test: Growth inhibition of human OVCAR4 cells at 10 uM incubated for 48 hrs by sulforhodamine B assay relative to control; type: functional; conditions: OVCAR-4, 48 h, read-out: GI

Compound | inhibition of growth at 10 µM [%]
COc1ccc(-c2nc3sc(-c4ccc(Cl)cc4)cn3n2)cc1 | -63.3
c1ccc(-c2nc3sc(-c4ccccc4)cn3n2)cc1 | 23

tested on: T47D; test: Growth inhibition of human T47D cells at 10 uM incubated for 48 hrs by sulforhodamine B assay relative to control; type: functional; conditions: read-out: GI

Compound | inhibition of growth at 10 µM [%]
COc1ccc(-c2nc3sc(-c4ccc(Cl)cc4)cn3n2)cc1 | 45.1
c1ccc(-c2nc3sc(-c4ccccc4)cn3n2)cc1 | 63

tested on: A498; test: Growth inhibition of human A498 cells at 10 uM incubated for 48 hrs by sulforhodamine B assay relative to control; type: functional; conditions: A498, 48 h, read-out: GI

Compound | inhibition of growth at 10 µM [%]
COc1ccc(-c2nc3sc(-c4ccc(Cl)cc4)cn3n2)cc1 | -25.8
c1ccc(-c2nc3sc(-c4ccccc4)cn3n2)cc1 | 13

tested on: U-251; test: Growth inhibition of human U251 cells at 10 uM incubated for 48 hrs by sulforhodamine B assay relative to control; type: functional; conditions: U-251, 48 h, read-out: GI

Compound | inhibition of growth at 10 µM [%]
COc1ccc(-c2nc3sc(-c4ccc(Cl)cc4)cn3n2)cc1 | -67.9
c1ccc(-c2nc3sc(-c4ccccc4)cn3n2)cc1 | 6

tested on: Malme-3M; test: Growth inhibition of human MALME-3M cells at 10 uM incubated for 48 hrs by sulforhodamine B assay relative to control; type: functional; conditions: read-out: GI

Compound | inhibition of growth at 10 µM [%]
COc1ccc(-c2nc3sc(-c4ccc(Cl)cc4)cn3n2)cc1 | 49.2

tested on: SNB-19; test: Growth inhibition of human SNB19 cells at 10 uM incubated for 48 hrs by sulforhodamine B assay relative to control; type: functional; conditions: SNB-19, 48 h, read-out: GI

Compound | inhibition of growth at 10 µM [%]
COc1ccc(-c2nc3sc(-c4ccc(Cl)cc4)cn3n2)cc1 | -1.95
c1ccc(-c2nc3sc(-c4ccccc4)cn3n2)cc1 | 11

tested on: SN12C; test: Growth inhibition of human SN12C cells at 10 uM incubated for 48 hrs by sulforhodamine B assay relative to control; type: functional; conditions: read-out: GI

Compound | inhibition of growth at 10 µM [%]
COc1ccc(-c2nc3sc(-c4ccc(Cl)cc4)cn3n2)cc1 | 94.7
c1ccc(-c2nc3sc(-c4ccccc4)cn3n2)cc1 | 20

tested on: SK-MEL-2; test: Growth inhibition of human SK-MEL-2 cells at 10 uM incubated for 48 hrs by sulforhodamine B assay relative to control; type: functional; conditions: SK-MEL-2, 48 h, read-out: GI

Compound | inhibition of growth at 10 µM [%]
c1ccc(-c2nc3sc(-c4ccccc4)cn3n2)cc1 | 5

tested on: K562; test: Growth inhibition of human K562 cells at 10 uM incubated for 48 hrs by sulforhodamine B assay relative to control; type: functional; conditions: K562, 48 h, read-out: GI

Compound | inhibition of growth at 10 µM [%]
COc1ccc(-c2nc3sc(-c4ccc(Cl)cc4)cn3n2)cc1 | 38.5
c1ccc(-c2nc3sc(-c4ccccc4)cn3n2)cc1 | 11

tested on: MDA-MB-231; test: Growth inhibition of human MDA-MB-231/ATCC cells at 10 uM incubated for 48 hrs by sulforhodamine B assay relative to control; type: functional; conditions: MDA-MB-231, 48 h, read-out: GI

Compound | inhibition of growth at 10 µM [%]
COc1ccc(-c2nc3sc(-c4ccc(Cl)cc4)cn3n2)cc1 | 86.7
c1ccc(-c2nc3sc(-c4ccccc4)cn3n2)cc1 | 35

tested on: MOLT-4; test: Growth inhibition of human MOLT4 cells at 10 uM incubated for 48 hrs by sulforhodamine B assay relative to control; type: functional; conditions: MOLT-4, 48 h, read-out: GI

Compound | inhibition of growth at 10 µM [%]
COc1ccc(-c2nc3sc(-c4ccc(Cl)cc4)cn3n2)cc1 | 17.4
c1ccc(-c2nc3sc(-c4ccccc4)cn3n2)cc1 | 11

tested on: CCRF-CEM; test: Growth inhibition of human CCRF-CEM cells at 10 uM incubated for 48 hrs by sulforhodamine B assay relative to control; type: functional; conditions: read-out: GI

Compound | inhibition of growth at 10 µM [%]
COc1ccc(-c2nc3sc(-c4ccc(Cl)cc4)cn3n2)cc1 | 30.5
c1ccc(-c2nc3sc(-c4ccccc4)cn3n2)cc1 | 13

tested on: RXF 393; test: Growth inhibition of human RXF393 cells at 10 uM incubated for 48 hrs by sulforhodamine B assay relative to control; type: functional; conditions: RXF 393, 48 h, read-out: GI

Compound | inhibition of growth at 10 µM [%]
COc1ccc(-c2nc3sc(-c4ccc(Cl)cc4)cn3n2)cc1 | 41
c1ccc(-c2nc3sc(-c4ccccc4)cn3n2)cc1 | 9

tested on: MCF7; test: Growth inhibition of human MCF7 cells at 10 uM incubated for 48 hrs by sulforhodamine B assay relative to control; type: functional; conditions: MCF7, 48 h, read-out: GI

Compound | inhibition of growth at 10 µM [%]
COc1ccc(-c2nc3sc(-c4ccc(Cl)cc4)cn3n2)cc1 | 51.1
c1ccc(-c2nc3sc(-c4ccccc4)cn3n2)cc1 | 61

tested on: RPMI-8226; test: Growth inhibition of human RPMI8226 cells at 10 uM incubated for 48 hrs by sulforhodamine B assay relative to control; type: functional; conditions: RPMI-8226, 48 h, read-out: GI

Compound | inhibition of growth at 10 µM [%]
COc1ccc(-c2nc3sc(-c4ccc(Cl)cc4)cn3n2)cc1 | 55.1
c1ccc(-c2nc3sc(-c4ccccc4)cn3n2)cc1 | 14

tested on: HL-60(TB); test: Growth inhibition of human HL-60(TB) cells at 10 uM incubated for 48 hrs by sulforhodamine B assay relative to control; type: functional; conditions: HL-60, 48 h, read-out: GI

Compound | inhibition of growth at 10 µM [%]
c1ccc(-c2nc3sc(-c4ccccc4)cn3n2)cc1 | 21

tested on: NCI-H522; test: Growth inhibition of human NCI-H522 cells at 10 uM incubated for 48 hrs by sulforhodamine B assay relative to control; type: functional; conditions: NCI-H522, 48 h, read-out: GI

Compound | inhibition of growth at 10 µM [%]
COc1ccc(-c2nc3sc(-c4ccc(Cl)cc4)cn3n2)cc1 | 39
c1ccc(-c2nc3sc(-c4ccccc4)cn3n2)cc1 | 19

tested on: DU-145; test: Growth inhibition of human DU145 cells at 10 uM incubated for 48 hrs by sulforhodamine B assay relative to control; type: functional; conditions: DU-145, 48 h, read-out: GI

Compound | inhibition of growth at 10 µM [%]
COc1ccc(-c2nc3sc(-c4ccc(Cl)cc4)cn3n2)cc1 | 19.3
c1ccc(-c2nc3sc(-c4ccccc4)cn3n2)cc1 | 15

tested on: PANC-1; test: Antiproliferative activity against human PANC1 cells after 48 hrs by propidium iodide staining-based fluorometric analysis; type: functional, cell-based; conditions: PANC-1, 48 h

Compound | IC50 [µM]
COc1ccc(-c2nc3sc(-c4ccc(Cl)cc4)cn3n2)cc1 | 2.8
c1ccc(-c2nc3sc(-c4ccccc4)cn3n2)cc1 | 7.2

tested on: NCI-H460; test: Antiproliferative activity against human H460 cells after 48 hrs by propidium iodide staining-based fluorometric analysis; type: functional, cell-based; conditions: NCI-H460, 48 h

Compound | IC50 [µM]
COc1ccc(-c2nc3sc(-c4ccc(Cl)cc4)cn3n2)cc1 | 1.6
c1ccc(-c2nc3sc(-c4ccccc4)cn3n2)cc1 | 8.3

tested on: NCI-H226; test: Growth inhibition of human NCI-H226 cells at 10 uM incubated for 48 hrs by sulforhodamine B assay relative to control; type: functional; conditions: NCI-H226, 48 h, read-out: GI

Compound | inhibition of growth at 10 µM [%]
COc1ccc(-c2nc3sc(-c4ccc(Cl)cc4)cn3n2)cc1 | 49.9
c1ccc(-c2nc3sc(-c4ccccc4)cn3n2)cc1 | 27

tested on: SF-539; test: Growth inhibition of human SF539 cells at 10 uM incubated for 48 hrs by sulforhodamine B assay relative to control; type: functional; conditions: SF-539, 48 h, read-out: GI

Compound | inhibition of growth at 10 µM [%]
COc1ccc(-c2nc3sc(-c4ccc(Cl)cc4)cn3n2)cc1 | 84.6

tested on: HT-29; test: Growth inhibition of human HT-29 cells at 10 uM incubated for 48 hrs by sulforhodamine B assay relative to control; type: functional; conditions: HT-29, 48 h, read-out: GI

Compound | inhibition of growth at 10 µM [%]
COc1ccc(-c2nc3sc(-c4ccc(Cl)cc4)cn3n2)cc1 | 82.7
c1ccc(-c2nc3sc(-c4ccccc4)cn3n2)cc1 | 9

tested on: KM12; test: Growth inhibition of human KM12 cells at 10 uM incubated for 48 hrs by sulforhodamine B assay relative to control; type: functional; conditions: KM12, 48 h, read-out: GI

Compound | inhibition of growth at 10 µM [%]
COc1ccc(-c2nc3sc(-c4ccc(Cl)cc4)cn3n2)cc1 | 45.3
c1ccc(-c2nc3sc(-c4ccccc4)cn3n2)cc1 | 18

tested on: EKVX; test: Growth inhibition of human EKVX cells at 10 uM incubated for 48 hrs by sulforhodamine B assay relative to control; type: functional; conditions: read-out: GI

Compound | inhibition of growth at 10 µM [%]
COc1ccc(-c2nc3sc(-c4ccc(Cl)cc4)cn3n2)cc1 | 52.5
c1ccc(-c2nc3sc(-c4ccccc4)cn3n2)cc1 | 21

tested on: NCI-H322M; test: Growth inhibition of human NCI-H322M cells at 10 uM incubated for 48 hrs by sulforhodamine B assay relative to control; type: functional; conditions: read-out: GI

Compound | inhibition of growth at 10 µM [%]
COc1ccc(-c2nc3sc(-c4ccc(Cl)cc4)cn3n2)cc1 | 82.2
c1ccc(-c2nc3sc(-c4ccccc4)cn3n2)cc1 | 11

tested on: SW-620; test: Growth inhibition of human SW620 cells at 10 uM incubated for 48 hrs by sulforhodamine B assay relative to control; type: functional; conditions: SW-620, 48 h, read-out: GI

Compound | inhibition of growth at 10 µM [%]
COc1ccc(-c2nc3sc(-c4ccc(Cl)cc4)cn3n2)cc1 | 40.4
c1ccc(-c2nc3sc(-c4ccccc4)cn3n2)cc1 | 5

tested on: COLO 205; test: Growth inhibition of human COLO205 cells at 10 uM incubated for 48 hrs by sulforhodamine B assay relative to control; type: functional; conditions: COLO 205, 48 h, read-out: GI

Compound | inhibition of growth at 10 µM [%]
COc1ccc(-c2nc3sc(-c4ccc(Cl)cc4)cn3n2)cc1 | 47.5
c1ccc(-c2nc3sc(-c4ccccc4)cn3n2)cc1 | 5

tested on: SF-295; test: Growth inhibition of human SF295 cells at 10 uM incubated for 48 hrs by sulforhodamine B assay relative to control; type: functional; conditions: SF-295, 48 h, read-out: GI

Compound | inhibition of growth at 10 µM [%]
COc1ccc(-c2nc3sc(-c4ccc(Cl)cc4)cn3n2)cc1 | 75.8

tested on: MDA-MB-435; test: Growth inhibition of human MDA-MB-435 cells at 10 uM incubated for 48 hrs by sulforhodamine B assay relative to control; type: functional; conditions: MDA-MB-435, 48 h, read-out: GI

Compound | inhibition of growth at 10 µM [%]
COc1ccc(-c2nc3sc(-c4ccc(Cl)cc4)cn3n2)cc1 | 25

tested on: IGROV-1; test: Growth inhibition of human IGROV1 cells at 10 uM incubated for 48 hrs by sulforhodamine B assay relative to control; type: functional; conditions: IGROV-1, 48 h, read-out: GI

Compound | inhibition of growth at 10 µM [%]
COc1ccc(-c2nc3sc(-c4ccc(Cl)cc4)cn3n2)cc1 | 92.9
c1ccc(-c2nc3sc(-c4ccccc4)cn3n2)cc1 | 43

tested on: ACHN; test: Growth inhibition of human ACHN cells at 10 uM incubated for 48 hrs by sulforhodamine B assay relative to control; type: functional; conditions: read-out: GI

Compound | inhibition of growth at 10 µM [%]
COc1ccc(-c2nc3sc(-c4ccc(Cl)cc4)cn3n2)cc1 | -74
c1ccc(-c2nc3sc(-c4ccccc4)cn3n2)cc1 | 14

tested on: NCI-H23; test: Growth inhibition of human NCI-H23 cells at 10 uM incubated for 48 hrs by sulforhodamine B assay relative to control; type: functional; conditions: NCI-H23, 48 h, read-out: GI

Compound | inhibition of growth at 10 µM [%]
COc1ccc(-c2nc3sc(-c4ccc(Cl)cc4)cn3n2)cc1 | 41.5
c1ccc(-c2nc3sc(-c4ccccc4)cn3n2)cc1 | 16

target: Epidermal growth factor receptor (Homo sapiens, UniProt P00533); test: Inhibition of His6-tagged recombinant EGFR cytoplasmic domain (645 to 1186 residues) (unknown origin) expressed in baculovirus infected Sf9 insect cells preincubated for 10 mins followed by ATP-MgCl2 addition and measured after 1 hr by DELFIA/time-resolved fluorometric analysis; conditions: not given
Sequence (P00533 whole entry, the tested form may be a part): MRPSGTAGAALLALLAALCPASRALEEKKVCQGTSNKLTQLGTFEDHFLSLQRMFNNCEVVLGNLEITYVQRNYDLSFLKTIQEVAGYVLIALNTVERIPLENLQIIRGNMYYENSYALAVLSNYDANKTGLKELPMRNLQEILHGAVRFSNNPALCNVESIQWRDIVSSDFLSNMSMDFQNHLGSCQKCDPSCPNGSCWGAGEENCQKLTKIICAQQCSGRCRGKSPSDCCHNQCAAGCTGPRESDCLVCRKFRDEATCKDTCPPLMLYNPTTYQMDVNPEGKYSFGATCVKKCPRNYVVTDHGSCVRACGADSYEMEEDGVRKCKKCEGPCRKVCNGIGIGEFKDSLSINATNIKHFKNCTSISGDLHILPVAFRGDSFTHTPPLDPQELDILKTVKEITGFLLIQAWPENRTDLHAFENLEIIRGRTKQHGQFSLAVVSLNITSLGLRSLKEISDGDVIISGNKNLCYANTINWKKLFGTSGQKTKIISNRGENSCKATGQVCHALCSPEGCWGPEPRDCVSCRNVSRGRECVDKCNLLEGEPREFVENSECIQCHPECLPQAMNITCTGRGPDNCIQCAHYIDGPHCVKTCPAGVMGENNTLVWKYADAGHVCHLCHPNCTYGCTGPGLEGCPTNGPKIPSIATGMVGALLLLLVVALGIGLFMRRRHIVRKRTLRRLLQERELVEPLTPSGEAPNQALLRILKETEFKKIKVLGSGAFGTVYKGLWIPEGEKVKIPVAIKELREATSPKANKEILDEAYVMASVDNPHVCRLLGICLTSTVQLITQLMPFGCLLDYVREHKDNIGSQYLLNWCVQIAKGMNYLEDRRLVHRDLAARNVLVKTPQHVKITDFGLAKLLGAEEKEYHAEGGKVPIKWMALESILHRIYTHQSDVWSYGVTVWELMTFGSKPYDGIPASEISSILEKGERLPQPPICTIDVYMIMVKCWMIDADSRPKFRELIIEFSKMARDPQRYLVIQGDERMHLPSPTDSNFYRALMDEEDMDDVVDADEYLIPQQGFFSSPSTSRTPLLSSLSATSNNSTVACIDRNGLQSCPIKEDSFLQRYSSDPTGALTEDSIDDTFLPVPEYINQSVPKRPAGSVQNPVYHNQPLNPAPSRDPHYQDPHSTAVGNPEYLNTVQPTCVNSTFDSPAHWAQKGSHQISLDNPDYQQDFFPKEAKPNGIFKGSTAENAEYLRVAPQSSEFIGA

Compound | IC50 [µM]
COc1ccc(-c2nc3sc(-c4ccc(Cl)cc4)cn3n2)cc1 | 1.5
c1ccc(-c2nc3sc(-c4ccccc4)cn3n2)cc1 | 9.8

tested on: HCT-116; test: Growth inhibition of human HCT116 cells at 10 uM incubated for 48 hrs by sulforhodamine B assay relative to control; type: functional; conditions: HCT-116, 48 h, read-out: GI

Compound | inhibition of growth at 10 µM [%]
COc1ccc(-c2nc3sc(-c4ccc(Cl)cc4)cn3n2)cc1 | -16
c1ccc(-c2nc3sc(-c4ccccc4)cn3n2)cc1 | 11
